Test results reported in US20250008983A1, “COMPOSITIONS CONTAINING PEROXYACIDS TO CONTROL PATHOGEN GROWTH IN ANIMAL FEED AND RELATED METHODS” (KEMIN INDUSTRIES, INC., priority 2023, published 2025).
Values after ≈ are worked out from the molar mass of the structure shown. Read-outs that look alike come from different tables or passages of the source.

Legend:
Format in all cases: cell-based
[1] = test system: Salmonella enterica isolated from layer feed; assay: Preliminary in vitro feed assay, Salmonella count in contaminated feed over 21 days; conditions: 15 kg/ton
Experimental: (§1) Preparation of the treatment. Perpropionic acid, peracetic acid, mixture of peroctanoic acid and perdecanoic acid (PC8/PC10) and Sal CURB products were used without any further dilution or mixing. The peroxy mix was prepared by mixing peracetic and perpropionic acid in 1:1 weight ratio. Briefly, 1.0 g of peroxy mix was prepared by weighing 0.5 g of peracetic acid into 0.5 g of perpropionic acid. The mixture was mixed well prior to usage. Similar procedure was followed in the preparation of 3% sulphuric acid (where […] of water) and peroxy mix with ester (where 0.9 g of peroxy mix (prepared with peracetic and propionic acid) was mixed with 0.1 g of propylene glycol propionate esters). […] Briefly, 1 mL of 75% phosphoric acid was added to 10 mL of Pro-Oxine solution and mixed well. The mixture is covered and let to stand for 10 mins prior to usage.
(§2) Preparation of stock feed inoculum. The researchers prepared contaminated feed from known methods, where Salmonella enterica isolated from layer feed was revived from the glycerol stock by plating a loopful of culture onto the TSAYE (i.e., tryptone soya agar supplemented with 0.6% yeast extract (CM0131B; Oxoid) prepared as per recommended) and incubate for 18-24 hours at 37° C. Following which, the colonies were collected aseptically with saline solution (i.e., 0.9% sodium chloride (V800372; Sigma-Aldrich) prepared in deionized water), yielding approximately 5 mL of biomass suspension. The biomass suspension was diluted accordingly to meet the contamination level required for the stock inoculum. No dilution was required for high contamination level of ca. 10^7 cfu/g whereas biomass suspension was diluted 1000 times to achieve lower contamination level of ca. 10^4 cfu/g in the stock inoculum. The stock feed inoculum was prepared by adding the biomass suspension (5 mL) into 100 g of sterile feed (made up with 7:3 ground corn and soybean, autoclaved at 121° C. for one hour and dried for 24 hours at 65° C.) with a syringe and needle, and homogenously mixed after. The stock feed inoculum was stored at 25° C. for a week. Salmonella count of the stock inoculum was determined using conventional plating method with XLD agar (i.e., Xylose lysine deoxycholate (CM0469B; Oxoid)) and BPW (i.e., buffered peptone water (CM0509B; Oxoid)) prior to usage. Briefly, three grams of stock feed inoculum was weighed into a 50 mL conical tube, diluted with 27 mL of BPW, homogenously mixed and left to stand for 30 minutes. The feed suspension was then serial diluted to the appropriate dilutions. An aliquot of 0.1 mL of the feed suspension was plated onto the agar at each dilution and incubated at 37° C. for 18-24 hours prior to enumeration. Plating was carried out in triplicates. Blank stock feed was prepared by adding 5 mL of saline into 100 g of sterile feed.
(§3) Preparation of the feed inoculum. The stock feed inoculum was diluted approximately 100 times with sterile feed where three grams of stock inoculum was added into 307 g of sterile feed and kept at 37° C. for 24 hours. The Salmonella count of the feed was determined prior to treatment. Briefly, 90 mL of BPW was added into 10 g of feed sample in a sterile bag (10^−1 dilution). The mixture was homogenously mixed with a stomacher at medium speed for three minutes and left to stand for 30 minutes. The feed supernatant was serial diluted to appropriate dilutions for plating. The plates were incubated at 37° C. for 18-24 hours prior to counting. If low Salmonella count was expected, the sample size was increased to 1 mL by plating 300, 300 and 400 uL onto three plates in triplicates for […] detection limit (10 cfu/g). Blank feed was prepared by adding three grams of blank stock feed into 307 g of sterile feed. In addition, an extra contaminated feed was prepared as a control.
(§4) Treatment of contaminated feed. […]

Enterobacteriaceae = test system: Enterobacteriaceae
Experimental: Materials and Method. Naturally contaminated layer feed was collected, ground, and mixed well prior to weighing. The ground feed was weighed and separated into 15 different bags, each containing 300 g. The product/prototype was accurately weighed at the needed dosage and adjusted to a total volume of 5 mL prior to adding into the 300 g of feed with a syringe and needle. Product/prototype was added in batches (i.e., 2, 2, and 1 mL separately) and mixed after each addition. Five mL of sterile water was added into the feed and served as the control. The treated feed samples were homogenized after treatment and kept at 25° C. until the day of enumeration.
TEC of the 15 samples were studied over a period of 22 days with enumeration interval at time points 0, 1 and 22 days. The effect of peroxy acid was neutralized at each time point prior to enumeration. At each time point, 20 mL of 0.1 M sodium thiosulphate was added into 10 g of each treated feed sample in a sterile bag. The mixture was mixed well and left to stand for 10 minutes. After 10 minutes, 70 mL of BPW was added to achieve 10^−1 dilution. The feed suspension was homogenously mixed and left to stand for 30 minutes. Subsequently, the feed suspension was serial diluted to appropriate dilutions for enumeration. 100 uL of the diluted samples were plated onto Violet Red Bile Glucose (VRBG; CM0485 from Oxoid) agar, prepared as per recommended by the supplier. An aliquot of 0.1 mL of the feed suspension was plated onto the agar at each dilution and incubated at 37° C. for 18-24 hours prior to enumeration. Plating was carried out in triplicates. If low TEC is expected, the sample size is increased to 1 mL by plating 300, 300 and 400 uL onto three plates in triplicates for lower detection limit (10 CFU/g). The diluted feed samples (at 10^−1 dilution factor) were kept at 37° C. for 18-24 hours for enrichment prior to streaking. A loopful of diluted feed suspension was streaked onto the VRBG agar and incubated at 37° C. for 18-24 hours to determine qualitatively the presence of Enterobacteriaceae for samples with undetectable TEC.

[2] = test system: Salmonella enterica isolated from layer feed; assay: In vitro feed assay, high Salmonella contamination level (~5 log cfu/g); conditions: 10.0 kg/ton
Experimental: as §1, §2, §3, §4

[3] = test system: Escherichia coli ATCC 25922; assay: Minimum inhibitory concentration (MIC), broth microdilution; conditions: Escherichia coli
Experimental: Materials and Methods. The assay was conducted to determine the minimum inhibitory concentration (MIC) of peroxy-acids against Escherichia coli ATCC 25922. E. coli was purchased from American Type Culture Collection (ATCC). The strain was stored at −80° C. in glycerol. Prior to usage, E. coli was revived by streaking a loopful of culture onto TSAYE (i.e., tryptone soya agar yeast extract (CM0131 and LP0021; Oxoid) prepared as per recommended by Oxoid) with overnight incubation at 37° C. An overnight culture of E. coli was diluted in TSBYE (i.e, tryptone soya broth yeast extract (CM0129; Oxoid) prepared as per recommended by Oxoid) to obtain a cell suspension of ca. 10^5 CFU/mL. Subsequently, 100 μL of the diluted culture was added to 100 μL of the test solutions at the needed concentrations into a microtiter plate (92096; TPP Techno Plastic Products AG). Peroxy-acids were tested at an active concentration of 25-1600 μg/mL. Subsequently, the inoculated plate was incubated at 37° C. up to 48 hours with the bacterial cell density recorded at optical density (OD) 600 nm at 24 hours interval using a microplate reader (Varioskan LUX; Thermo Fisher).

## O=S(=O)(O)O [3% w/w sulphuric acid, sulphuric acid]
[1]; over the 21 days
  Salmonella killing effect: No Salmonella killing effect
[1]; post-treatment Day 1
  Salmonella count: 5.80 log cfu/g
[1]; post-treatment Day 6
  Salmonella count: 5.02 log cfu/g
[1]; post-treatment Day 21
  Salmonella count: 4.82 log cfu/g
[1]; pre-treatment Day 0
  Salmonella count: 5.59 log cfu/g

## CC(=O)OO [Peracetic acid, peracetic acid]
Enterobacteriaceae; 2.5 kg/ton, post treatment Day 1
  TEC: <1.00 log CFU/g
Enterobacteriaceae; 2.5 kg/ton, post treatment Day 22
  TEC: 3.32 log CFU/g
Enterobacteriaceae; 2.5 kg/ton, pre-treatment Day 0
  TEC: 3.37 log CFU/g
Enterobacteriaceae; 5.0 kg/ton, post treatment Day 1
  TEC: 2.39 log CFU/g
Enterobacteriaceae; 5.0 kg/ton, post treatment Day 22
  TEC: <1.00 log CFU/g
Enterobacteriaceae; 5.0 kg/ton, pre-treatment Day 0
  TEC: <2.00 log CFU/g
Enterobacteriaceae; 10.0 kg/ton, post treatment Day 1
  TEC: 1.43 log CFU/g
Enterobacteriaceae; 10.0 kg/ton, post treatment Day 22
  TEC: <1.00 log CFU/g
Enterobacteriaceae; 10.0 kg/ton, pre-treatment Day 0
  TEC: 2.52 log CFU/g
[2]; post-treatment Day 1
  Salmonella count: 2.01 log cfu/g
[2]; post-treatment Day 2
  Salmonella count: BD (Salmonella count is below detection limit (1 log cfu/g))
[2]; post-treatment Day 3
  Salmonella count: BD (Salmonella count is below detection limit (1 log cfu/g))
[2]; post-treatment Day 6
  Salmonella count: 2.11 log cfu/g
[2]; post-treatment Day 14
  Salmonella count: BD (Salmonella count is below detection limit (1 log cfu/g))
[2]; post-treatment Day 21
  Salmonella count: 1.12 log cfu/g
[2]; pre-treatment Day 0
  Salmonella count: 5.98 log cfu/g
[3]; ATCC25922, preliminary results, read-out: MIC
  MIC: 300 µg/mL (≈ 3.94 mM)
[3]; ATCC25922, no increment in OD over 48 hours, 37° C., read-out: Minimum inhibitory concentration (μg/mL) against E. coli
  MIC: 300 µg/mL (≈ 3.94 mM)
[1]; pre-treatment Day 0
  Salmonella count: 5.63 log cfu/g
